The text below walks through data of patent US9649314B2, “Pyrimido[4,5-b]quinoline-4,5(3H,10H)-diones” (NOVARTIS AG, priority 2012, dated 2017).

The assay deals with CFTR-Y122X. In words: CFTR-Y122X assay (dual reporter isogenic Hek293 cell lines, Renilla luminescence readthrough). The note with it: Homo sapiens, HEK293. It counts as cell-based. Put shortly:
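Stable isogenic HEK dual-reporter line (eGFP–CFTR Y122X TGA PTC–myc–Renilla); 2000 cells/well, 24 h, then compound (10 μM; tested up to 100 μM) 24 h at 37 °C. Renilla luminescence normalised to neutral (0%) and 14 mM paromomycin (100%); wildtype construct counterscreen.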

[1] abbreviates: nonsense mutation suppression, 100% = 14 mM paromomycin, 24 h incubation, tested up to 100 μM, read-out: Amax [%].
[2] abbreviates: nonsense mutation suppression, 24 h incubation.
Where [3] appears, read: at the above dose ranges (up to 100 μM), read-out: suppression, % of paromomycin reference activity.

Where two headings read alike, the source gives them in different places.

`CCc1nc2c(c(=O)c3ccccc3n2C)c(=O)n1-c1ccccc1` [Example 1.31, 2-ethyl-10-methyl-3-phenylpyrimido[4,5-b]quinoline-4,5(3H,10H)-dione]: under setting [1], the Emax came to 177%. For the same compound, the activity under setting [2] was half-maximal at 10.6 µM (AC50).
Turning to `CCc1nc2c(c(=O)c3ccccc3n2C)c(=O)n1-c1cc(C)cc(C)c1` [Example 1.33, 3-(3,5-dimethylphenyl)-2-ethyl-10-methylpyrimido[4,5-b]quinoline-4,5(3H,10H)-dione], under setting [1], the Emax amounted to 16%. Under setting [2], the AC50 – broadly, the midpoint of the concentration-response curve, whichever way the signal moves – was found to be 0.7 µM.
In the same order, the values of `Cn1c2ccccc2c(=O)c2c(=O)n(C3CCCC3)c(-c3ccco3)nc21` [Example 2.49, 3-cyclopentyl-2-(furan-2-yl)-10-methylpyrimido[4,5-b]quinoline-4,5(3H,10H)-dione] are 7% and 1.8 µM.
In the same order, the values of `Cn1c2ccccc2c(=O)c2c(=O)n(C3CCCCCC3)c(-c3cccc(Br)c3)nc21` [Example 2.50, 2-(3-bromophenyl)-3-cycloheptyl-10-methylpyrimido[4,5-b]quinoline-4,5(3H,10H)-dione] are 6% and 4.4 µM.
In the same order, the values of `CCSc1nc2[nH]c3ccccc3c(=O)c2c(=O)n1-c1ccccc1` [Example 3.1, 2-(ethylthio)-3-phenylpyrimido[4,5-b]quinoline-4,5(3H,10H)-dione] are 65% and 5.8 µM.
With `CCCc1nc2c(c(=O)c3ccccc3n2C)c(=O)n1-c1ccccc1` [Example 1.30, 10-methyl-3-phenyl-2-propylpyrimido[4,5-b]quinoline-4,5(3H,10H)-dione], under setting [1], the Emax was determined as 262%. The compound also returned an AC50 under setting [2] of 6.5 µM.
In the same order, the values of `CCCc1nc2c(c(=O)c3ccccc3n2C)c(=O)n1C1CCCC1` [Example 2.21, 3-cyclopentyl-10-methyl-2-propylpyrimido[4,5-b]quinoline-4,5(3H,10H)-dione] are 214% and 7.6 µM.
In the same order, the values of `Cc1ccccc1-c1nc2c(c(=O)c3ccccc3n2C)c(=O)n1C1CCCC1` [Example 2.34, 3-cyclopentyl-10-methyl-2-(o-tolyl)pyrimido[4,5-b]quinoline-4,5(3H,10H)-dione] are 33% and 8.4 µM.
For `Cn1c2ccccc2c(=O)c2c(=O)n(C3CCCCCC3)c(-c3ccc(C(C)(C)C)cc3)nc21` [2-(4-(tert-butyl)phenyl)-3-cycloheptyl-10-methylpyrimido[4,5-b]quinoline-4,5(3H,10H)-dione], the Emax under setting [3] is under 5%.
On the same count and under the same terms, the value for `Cn1c2ccccc2c(=O)c2c(=O)n(C3CCCC3)c(-c3ccc(Cl)cc3)nc21` [2-(4-chlorophenyl)-3-cyclopentyl-10-methylpyrimido[4,5-b]quinoline-4,5(3H,10H)-dione] was under 5%.
For `Cn1c2ccccc2c(=O)c2c(=O)n(C3CCCCC3)c(-c3ccccc3Cl)nc21` [Example 2.38, 2-(2-chlorophenyl)-3-cyclohexyl-10-methylpyrimido[4,5-b]quinoline-4,5(3H,10H)-dione], under setting [1], the Emax came out at 21%. This compound came in with an AC50 under setting [2] of 10 µM.
In the same order, the values of `CCCCCc1nc2c(c(=O)c3ccccc3n2C)c(=O)n1-c1ccccc1` [Example 1.29, 10-methyl-2-pentyl-3-phenylpyrimido[4,5-b]quinoline-4,5(3H,10H)-dione] are 336% and 7.1 µM.
In the same order, the values of `CC(C)Cc1nc2c(c(=O)c3ccccc3n2C)c(=O)n1C1CCCC1` [Example 2.5, 3-cyclopentyl-2-isobutyl-10-methylpyrimido[4,5-b]quinoline-4,5(3H,10H)-dione] are 243% and 8.1 µM.
In the case of `Cn1c2ccccc2c(=O)c2c(=O)n(-c3c(Cl)cccc3Cl)c(C3CCC3)nc21` [Example 1.46, 2-cyclobutyl-3-(2,6-dichlorophenyl)-10-methylpyrimido[4,5-b]quinoline-4,5(3H,10H)-dione], under setting [1], the Emax worked out at 25%.
Take `CC(C)c1nc2c(c(=O)c3ccccc3n2C)c(=O)n1-c1ccccc1Br` [Example 1.40, 3-(2-bromophenyl)-2-isopropyl-10-methylpyrimido[4,5-b]quinoline-4,5(3H,10H)-dione]: the Emax under setting [1] is 112%. The AC50 under setting [2] stood at 12.1 µM.
In the same order, the values of `Cn1c2ccccc2c(=O)c2c(=O)n(C3CCCCCC3)c(-c3cccc([N+](=O)[O-])c3)nc21` [Example 2.46, 3-cycloheptyl-10-methyl-2-(3-nitrophenyl)pyrimido[4,5-b]quinoline-4,5(3H,10H)-dione] are 12% and 4.2 µM.
In the same order, the values of `CC(C)c1nc2c(c(=O)c3ccccc3n2C)c(=O)n1-c1ccccc1F` [Example 1.15, 3-(2-fluorophenyl)-2-isopropyl-10-methylpyrimido[4,5-b]quinoline-4,5(3H,10H)-dione] are 169% and 7.8 µM.
Regarding `Cn1c2ccccc2c(=O)c2c(=O)n(C3CCCCCC3)c(-c3ccc(Cl)cc3)nc21` [2-(4-chlorophenyl)-3-cycloheptyl-10-methylpyrimido[4,5-b]quinoline-4,5(3H,10H)-dione], the Emax under setting [3] is under 5%.
Take `COc1ccc2c(c1)c(=O)c1c(=O)n(C3CCCC3)c(C(C)C)nc1n2C` [Example 2.10, 3-cyclopentyl-2-isopropyl-7-methoxy-10-methylpyrimido[4,5-b]quinoline-4,5(3H,10H)-dione]: the Emax under setting [1] was 25%. The compound further had an AC50 under setting [2] of 25 µM.
In the same order, the values of `Cn1c2ccccc2c(=O)c2c(=O)n(C3CCCC3)c(C3CCCCC3)nc21` [Example 2.28, 2-cyclohexyl-3-cyclopentyl-10-methylpyrimido[4,5-b]quinoline-4,5(3H,10H)-dione] are 89% and 15.1 µM.
In the same order, the values of `CCC(C)c1nc2c(c(=O)c3ccccc3n2C)c(=O)n1C1CCCC1` (stereo not drawn) [Example 2.4, 2-(sec-butyl)-3-cyclopentyl-10-methylpyrimido[4,5-b]quinoline-4,5(3H,10H)-dione] are 258% and 6.1 µM.
In the same order, the values of `CC(C)c1nc2c(c(=O)c3ccccc3n2C)c(=O)n1C1CCCC1` [Example 2.15, 3-cyclopentyl-2-isopropyl-10-methylpyrimido[4,5-b]quinoline-4,5(3H,10H)-dione] are 275% and 3.8 µM.
As for `Cn1c2ccccc2c(=O)c2c(=O)n(C3CCCCCC3)c(-c3ccccc3)nc21` [Example 2.26, 3-cycloheptyl-10-methyl-2-phenylpyrimido[4,5-b]quinoline-4,5(3H,10H)-dione], the Emax under setting [1] was 97%. This compound showed an AC50 under setting [2] of 11.1 µM.
In the case of `Cn1c2ccccc2c(=O)c2c(=O)n(-c3ccccc3)c(C3CCCC3)nc21` [Example 1.10, 2-cyclopentyl-10-methyl-3-phenylpyrimido[4,5-b]quinoline-4,5(3H,10H)-dione], the Emax under setting [1] was determined as 277%. For the same compound, the activity under setting [2] was half-maximal at 11 µM (AC50).
In the same order, the values of `Cc1ccc2c(c1)c(=O)c1c(=O)n(-c3ccccc3)c(C(C)C)nc1n2C` [Example 1.26, 2-isopropyl-7,10-dimethyl-3-phenylpyrimido[4,5-b]quinoline-4,5(3H,10H)-dione] are 254% and 9.6 µM.
For the compound `CC(C)c1nc2c(c(=O)c3ccccc3n2C)c(=O)n1-c1ccccc1` [Example 1.28, 2-isopropyl-10-methyl-3-phenylpyrimido[4,5-b]quinoline-4,5(3H,10H)-dione], the Emax under setting [1] amounted to 361%. This compound also displayed a half-maximal activity concentration (AC50) under setting [2] of 7.6 µM.
Take `C#Cc1ccc2c(c1)c(=O)c1c(=O)n(C3CCCC3)c(C(C)C)nc1n2C` [Example 2.13, 3-cyclopentyl-7-ethynyl-2-isopropyl-10-methylpyrimido[4,5-b]quinoline-4,5(3H,10H)-dione]: the Emax under setting [1] came out at 11%.
For the compound `Cn1c2ccccc2c(=O)c2c(=O)n(C3CCCCC3)c(C3CCCCC3)nc21` [2,3-dicyclohexyl-10-methylpyrimido[4,5-b]quinoline-4,5(3H,10H)-dione], under setting [3], the Emax was under 5%.
For `COc1cc(-c2nc3c(c(=O)c4ccccc4n3C)c(=O)n2C2CCCCCC2)cc(OC)c1OC` [Example 2.42, 3-cycloheptyl-10-methyl-2-(3,4,5-trimethoxyphenyl)pyrimido[4,5-b]quinoline-4,5(3H,10H)-dione], the Emax under setting [1] is 18%. The same compound came in with an AC50 under setting [2] of 10.7 µM.
Turning to `CCCc1nc2c(c(=O)c3ccccc3n2C)c(=O)n1C1CCCCC1` [Example 2.24, 3-cyclohexyl-10-methyl-2-propylpyrimido[4,5-b]quinoline-4,5(3H,10H)-dione], the Emax under setting [1] came to 170%. Under setting [2], this compound gave an AC50 of 2.3 µM.
Regarding `Cn1c2ccccc2c(=O)c2c(=O)n(C3CCCCCC3)c(-c3ccccc3F)nc21` [3-cycloheptyl-2-(2-fluorophenyl)-10-methylpyrimido[4,5-b]quinoline-4,5(3H,10H)-dione], the Emax under setting [3] is under 5%.
Consider `CC1CC(c2nc3c(c(=O)c4ccccc4n3C)c(=O)n2-c2ccccc2)C1` (stereo not drawn) [Example 1.6, 10-methyl-2-(3-methylcyclobutyl)-3-phenylpyrimido[4,5-b]quinoline-4,5(3H,10H)-dione], for which the Emax under setting [1] worked out at 165%. For the same compound, half-maximal activity under setting [2] (AC50) was put at 6.1 µM.
